In patent US10149879B2 (priority 2014, dated 2018):

How the values were obtained:
βTC6 insulinoma cell [1] = experiment: Anti-oxidant activity in βTC6 insulinoma cell challenged with H2O2; format: cell-based; set-up: Anti-oxidant activity, cells challenged with H2O2: unit not given here; settings: for Anti-oxidant activity, cells challenged with H2O2: βTC6
Source text: Anti-Oxidant Activity in βTC6 Insulinoma Cell Challenged with H2O2 Berberin and Quercetin—
Anti-Oxidant Activity in βTC6 Insulinoma Cell Challenged with H2O2 Berberin and Palmatine—

3T3-L1 cells [2] = experiment: Anti-oxidant activity in 3T3-L1 cells challenged with H2O2; format: cell-based; set-up: Anti-oxidant activity, cells challenged with H2O2: scale not given here; settings: for Anti-oxidant activity, cells challenged with H2O2: 3T3-L1; for protection against H2O2 induced cellular oxidative damage: 3T3-L1 cells
Source text: Anti-Oxidant Activity in 3T3-L1 Cells Challenged with H2O2 Berberin and Palmatine
Anti-Oxidant Activity in 3T3-L1 Cells Challenged with H2O2 Berberin and Quercetin

L6 cells = experiment: Anti-oxidant activity in L6 cells challenged with H2O2; format: cell-based; set-up: Anti-oxidant activity, cells challenged with H2O2: unit not given here; settings: for Anti-oxidant activity, cells challenged with H2O2: L6; for protection against H2O2 induced cellular oxidative damage: L6 cells
Source text: Anti-Oxidant Activity in L6 Cells Challenged with H2O2 Berberin and Palmatine
Anti-Oxidant Activity in L6 Cells Challenged with H2O2—Berberin and Quercetin

βTC6 insulinoma cell [3] = experiment: Cell viability assay in βTC6 insulinoma cell line; format: cell-based; settings: βTC6, control 100.00
Source text: Cell Viability Assay in βTC6 Insulinoma Cell Lime Following—

L6-myotubes = experiment: Anti-diabetic activity (glucose consumption) in L6-myotubes; format: cell-based; set-up: Anti-diabetic activity (glucose consumption): unit not given here; settings: for Anti-diabetic activity (glucose consumption): L6-myotubes, control 1.00
3T3-L1 cells [4] = experiment: Cell viability assay in 3T3-L1 cells; settings: for Cell viability: 3T3-L1, control 100.00
[5] = comparison with positive standard

O=c1c(O)c(-c2ccc(O)c(O)c2)oc2cc(O)cc(O)c12 [Quercetin]
Anti-oxidant activity, cells challenged with H2O2 (βTC6 insulinoma cell [1]; Co-incubated, 0.1 pM, control 55.64): 60.31 ± 2.71
Anti-oxidant activity, cells challenged with H2O2 (βTC6 insulinoma cell [1]; Co-incubated, 1 pM, control 55.64): 67.11 ± 2.71
Anti-oxidant activity, cells challenged with H2O2 (βTC6 insulinoma cell [1]; Co-incubated, 10 pM, control 55.64): 70.10 ± 2.30
Anti-oxidant activity, cells challenged with H2O2 (βTC6 insulinoma cell [1]; Co-incubated, 100 pM, control 55.64): 80.72 ± 1.20
Anti-oxidant activity, cells challenged with H2O2 (βTC6 insulinoma cell [1]; Co-incubated, 1 nM, control 55.64): 90.44 ± 1.94
Anti-oxidant activity, cells challenged with H2O2 (βTC6 insulinoma cell [1]; Pre-incubated, 0.1 pM, control 55.64): 64.00 ± 2.10
Anti-oxidant activity, cells challenged with H2O2 (βTC6 insulinoma cell [1]; Pre-incubated, 1 pM, control 55.64): 68.38 ± 1.79
Anti-oxidant activity, cells challenged with H2O2 (βTC6 insulinoma cell [1]; Pre-incubated, 10 pM, control 55.64): 77.51 ± 2.06
Anti-oxidant activity, cells challenged with H2O2 (βTC6 insulinoma cell [1]; Pre-incubated, 100 pM, control 55.64): 81.63 ± 1.50
Anti-oxidant activity, cells challenged with H2O2 (βTC6 insulinoma cell [1]; Pre-incubated, 1 nM, control 55.64): 87.59 ± 1.95
Anti-oxidant activity, cells challenged with H2O2 (3T3-L1 cells [2]; Co-incubated, 0.1 pM, control 50.00): 57.30 ± 1.70
Anti-oxidant activity, cells challenged with H2O2 (3T3-L1 cells [2]; Co-incubated, 1 pM, control 50.00): 65.00 ± 2.75
Anti-oxidant activity, cells challenged with H2O2 (3T3-L1 cells [2]; Co-incubated, 10 pM, control 50.00 ± 0.40): 68.01 ± 2.75
Anti-oxidant activity, cells challenged with H2O2 (3T3-L1 cells [2]; Co-incubated, 100 pM, control 50.00 ± 0.40): 78.70 ± 3.50
Anti-oxidant activity, cells challenged with H2O2 (3T3-L1 cells [2]; Co-incubated, 1 nM, control 50.00 ± 0.40): 88.40 ± 1.90
Anti-oxidant activity, cells challenged with H2O2 (3T3-L1 cells [2]; Pre-incubated, 0.1 pM, control 50.00): 61.00 ± 3.00
Anti-oxidant activity, cells challenged with H2O2 (3T3-L1 cells [2]; Pre-incubated, 1 pM, control 50.00): 65.00 ± 1.70
Anti-oxidant activity, cells challenged with H2O2 (3T3-L1 cells [2]; Pre-incubated, 10 pM, control 50.00 ± 0.40): 75.15 ± 2.99
Anti-oxidant activity, cells challenged with H2O2 (3T3-L1 cells [2]; Pre-incubated, 100 pM, control 50.00 ± 0.40): 88.60 ± 2.60
Anti-oxidant activity, cells challenged with H2O2 (3T3-L1 cells [2]; Pre-incubated, 1 nM, control 50.00 ± 0.40): 94.15 ± 1.70
protection against H2O2 induced cellular oxidative damage (3T3-L1 cells [2]; [5]): superior even at lower concentration
Anti-oxidant activity, cells challenged with H2O2 (L6 cells; Co-incubated, 0.1 pM, control 61.10): 57.50 ± 1.80
Anti-oxidant activity, cells challenged with H2O2 (L6 cells; Co-incubated, 1 pM, control 61.10): 65.05 ± 2.80
Anti-oxidant activity, cells challenged with H2O2 (L6 cells; Co-incubated, 10 pM, control 61.10): 70.36 ± 2.96
Anti-oxidant activity, cells challenged with H2O2 (L6 cells; Co-incubated, 100 pM, control 61.10): 78.18 ± 2.99
Anti-oxidant activity, cells challenged with H2O2 (L6 cells; Co-incubated, 1 nM, control 61.10): 88.64 ± 1.99
Anti-oxidant activity, cells challenged with H2O2 (L6 cells; Pre-incubated, 0.1 pM, control 61.10): 63.60 ± 1.50
Anti-oxidant activity, cells challenged with H2O2 (L6 cells; Pre-incubated, 1 pM, control 61.10): 68.02 ± 1.40
Anti-oxidant activity, cells challenged with H2O2 (L6 cells; Pre-incubated, 10 pM, control 61.10): 75.12 ± 3.50
Anti-oxidant activity, cells challenged with H2O2 (L6 cells; Pre-incubated, 100 pM, control 61.10): 87.90 ± 1.60
Anti-oxidant activity, cells challenged with H2O2 (L6 cells; Pre-incubated, 1 nM, control 61.10): 95.15 ± 0.99
protection against H2O2 induced cellular oxidative damage (L6 cells; [5]): potent protection

COc1cc2c(cc1OC)-c1cc3ccc(OC)c(OC)c3c[n+]1CC2 [Palmatine]
Cell viability (βTC6 insulinoma cell [3]; 1 pM): 97.96 ± 1.10
Cell viability (βTC6 insulinoma cell [3]; 10 pM): 97.50 ± 2.05
Cell viability (βTC6 insulinoma cell [3]; 100 pM): 96.52 ± 2.70
Cell viability (βTC6 insulinoma cell [3]; 1 nM): 94.80 ± 1.32
Cell viability (βTC6 insulinoma cell [3]; 10 nM): 91.66 ± 1.60
Cell viability (βTC6 insulinoma cell [3]; 100 nM): 84.45 ± 1.30
Cell viability (βTC6 insulinoma cell [3]; 1 μM): 83.20 ± 1.90
Cell viability (βTC6 insulinoma cell [3]; 10 μM): 81.98 ± 1.70
Anti-oxidant activity, cells challenged with H2O2 (βTC6 insulinoma cell [1]; Co-incubated, 1 pM, control 55.54): 56.95 ± 3.60
Anti-oxidant activity, cells challenged with H2O2 (βTC6 insulinoma cell [1]; Co-incubated, 10 pM, control 55.54): 57.04 ± 2.00
Anti-oxidant activity, cells challenged with H2O2 (βTC6 insulinoma cell [1]; Co-incubated, 0.1 nM, control 55.54): 60.10 ± 1.41
Anti-oxidant activity, cells challenged with H2O2 (βTC6 insulinoma cell [1]; Co-incubated, 1 nM, control 55.54): 61.75 ± 2.16
Anti-oxidant activity, cells challenged with H2O2 (βTC6 insulinoma cell [1]; Co-incubated, 10 nM, control 55.54): 65.83 ± 0.81
Anti-oxidant activity, cells challenged with H2O2 (βTC6 insulinoma cell [1]; Pre-incubated, 1 pM, control 55.54): 55.32 ± 1.48
Anti-oxidant activity, cells challenged with H2O2 (βTC6 insulinoma cell [1]; Pre-incubated, 10 pM, control 55.54): 61.67 ± 2.10
Anti-oxidant activity, cells challenged with H2O2 (βTC6 insulinoma cell [1]; Pre-incubated, 0.1 nM, control 55.54): 65.18 ± 1.95
Anti-oxidant activity, cells challenged with H2O2 (βTC6 insulinoma cell [1]; Pre-incubated, 1 nM, control 55.54): 67.05 ± 2.40
Anti-oxidant activity, cells challenged with H2O2 (βTC6 insulinoma cell [1]; Pre-incubated, 10 nM, control 55.54): 69.58 ± 2.55
anti-oxidant activity (βTC6 insulinoma cell [1]; βTC6 cells challenged with hydrogen peroxide): potent anti-oxidant activity
protection against H2O2 induced cellular oxidative damage (βTC6 insulinoma cell [1]; βTC6 insulinoma cells): Mild Protection
Anti-oxidant activity, cells challenged with H2O2 (3T3-L1 cells [2]; Co-incubated, 10 pM, control 50.00): 54.85 ± 2.20
Anti-oxidant activity, cells challenged with H2O2 (3T3-L1 cells [2]; Co-incubated, 100 pM, control 50.00): 57.18 ± 1.20
Anti-oxidant activity, cells challenged with H2O2 (3T3-L1 cells [2]; Co-incubated, 1 nM, control 50.00): 59.87 ± 2.70
Anti-oxidant activity, cells challenged with H2O2 (3T3-L1 cells [2]; Co-incubated, 10 nM, control 50.00): 63.00 ± 1.10
Anti-oxidant activity, cells challenged with H2O2 (3T3-L1 cells [2]; Co-incubated, 100 nM, control 50.00): 65.75 ± 1.40
Anti-oxidant activity, cells challenged with H2O2 (3T3-L1 cells [2]; Pre-incubated, 10 pM, control 50.00): 53.18 ± 3.25
Anti-oxidant activity, cells challenged with H2O2 (3T3-L1 cells [2]; Pre-incubated, 100 pM, control 50.00): 55.13 ± 1.50
Anti-oxidant activity, cells challenged with H2O2 (3T3-L1 cells [2]; Pre-incubated, 1 nM, control 50.00): 57.00 ± 1.25
Anti-oxidant activity, cells challenged with H2O2 (3T3-L1 cells [2]; Pre-incubated, 10 nM, control 50.00): 61.40 ± 0.25
Anti-oxidant activity, cells challenged with H2O2 (3T3-L1 cells [2]; Pre-incubated, 100 nM, control 50.00): 67.25 ± 2.25
protection against H2O2 induced cellular oxidative damage (3T3-L1 cells [2]; pM-nM doses): mild protection
Anti-oxidant activity, cells challenged with H2O2 (L6 cells; Co-incubated, 10 pM, control 60.10): 56.13 ± 6.40
Anti-oxidant activity, cells challenged with H2O2 (L6 cells; Co-incubated, 100 pM, control 60.10): 60.50 ± 5.50
Anti-oxidant activity, cells challenged with H2O2 (L6 cells; Co-incubated, 1 nM, control 60.10): 63.91 ± 5.04
Anti-oxidant activity, cells challenged with H2O2 (L6 cells; Co-incubated, 10 nM, control 60.10): 67.53 ± 8.12
Anti-oxidant activity, cells challenged with H2O2 (L6 cells; Co-incubated, 100 nM, control 60.10): 71.70 ± 6.16
Anti-oxidant activity, cells challenged with H2O2 (L6 cells; Pre-incubated, 10 pM, control 60.10): 58.70 ± 4.70
Anti-oxidant activity, cells challenged with H2O2 (L6 cells; Pre-incubated, 100 pM, control 60.10): 63.30 ± 3.16
Anti-oxidant activity, cells challenged with H2O2 (L6 cells; Pre-incubated, 1 nM, control 60.10): 66.12 ± 5.85
Anti-oxidant activity, cells challenged with H2O2 (L6 cells; Pre-incubated, 10 nM, control 60.10): 66.70 ± 3.12
Anti-oxidant activity, cells challenged with H2O2 (L6 cells; Pre-incubated, 100 nM, control 60.10): 70.00 ± 5.95
protection against H2O2 induced cellular oxidative damage (L6 cells; pM-nM doses): mild protection
Anti-diabetic activity (glucose consumption) (L6-myotubes; 1 nM): 1.58 ± 0.10
Anti-diabetic activity (glucose consumption) (L6-myotubes; 5 nM): 1.78 ± 1.10
Anti-diabetic activity (glucose consumption) (L6-myotubes; 25 nM): 2.12 ± 0.09
Anti-diabetic activity (glucose consumption) (L6-myotubes; 125 nM): 2.35 ± 0.12
Anti-diabetic activity (glucose consumption) (L6-myotubes; 625 nM): 2.60 ± 0.10
glucose consumption (L6-myotubes; differentiated L6-myotubes, dose dependent): accelerated glucose consumption
Cell viability (3T3-L1 cells [4]; 10 pM): 100.00 ± 0.10
Cell viability (3T3-L1 cells [4]; 100 pM): 99.99 ± 0.54
Cell viability (3T3-L1 cells [4]; 1 nM): 99.45 ± 0.48
Cell viability (3T3-L1 cells [4]; 10 nM): 98.30 ± 1.80
Cell viability (3T3-L1 cells [4]; 100 nM): 98.90 ± 1.06
Cell viability (3T3-L1 cells [4]; 1 μM): 95.15 ± 1.58
Cell viability (3T3-L1 cells [4]; 10 μM): 89.26 ± 1.30
Cell viability (3T3-L1 cells [4]; 100 μM): 83.10 ± 1.67
toxicity to the cell (3T3-L1 cells [4]; 3T3-L1 cells, 1 μM): non-toxic

Insulin: reference line in the L6-myotubes glucose consumption table
Anti-diabetic activity (glucose consumption) (L6-myotubes; Insulin line, concentration not given): 3.70 ± 0.15
